In test [1] the test system is PC9 cells (EGFR d746-750 single mutant). Description: PC-9 growth inhibition assay (cell proliferation), Method A. It is filed as cell-based, human. The settings on record: cellular proliferation, PC9 cells, 72 h, CellTiter-Glo (Table 1); read-out: PC9 IC50 (nM) SM. (In general: Cellular ATP, detected with luciferase, serves as a proxy for viable cell number.)
For a further test, the target named is T1, INSR (Homo sapiens, UniProt P06213).
T1 construct: purchased CARNA BIOSCIENCE 08-142
T1 sequence (P06213 989-1382 limits assumed): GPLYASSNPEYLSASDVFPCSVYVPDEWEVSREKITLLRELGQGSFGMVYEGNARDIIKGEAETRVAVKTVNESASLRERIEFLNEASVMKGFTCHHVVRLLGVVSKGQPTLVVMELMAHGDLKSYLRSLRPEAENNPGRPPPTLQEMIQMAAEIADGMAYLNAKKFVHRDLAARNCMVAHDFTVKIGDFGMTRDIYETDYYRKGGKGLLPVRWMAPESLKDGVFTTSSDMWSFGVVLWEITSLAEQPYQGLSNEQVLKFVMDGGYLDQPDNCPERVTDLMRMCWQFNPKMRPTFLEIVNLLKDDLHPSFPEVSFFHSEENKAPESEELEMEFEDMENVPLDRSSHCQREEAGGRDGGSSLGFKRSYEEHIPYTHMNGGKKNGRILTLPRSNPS
Description: INSR inhibition assay (Caliper EZ Reader). It is filed as biochemical. The settings on record: enzyme assay.

In a further test the target is T2, Wt EGFR (Homo sapiens, UniProt P00533).
T2 construct: isolated from A431 human epidermoid carcinoma cells which overexpress EGF receptor; endogenous in cells; host or cells: A431 human epidermoid carcinoma cells (receptor purified on wheat germ agglutinin sepharose)
T2 sequence (P00533 25-1210): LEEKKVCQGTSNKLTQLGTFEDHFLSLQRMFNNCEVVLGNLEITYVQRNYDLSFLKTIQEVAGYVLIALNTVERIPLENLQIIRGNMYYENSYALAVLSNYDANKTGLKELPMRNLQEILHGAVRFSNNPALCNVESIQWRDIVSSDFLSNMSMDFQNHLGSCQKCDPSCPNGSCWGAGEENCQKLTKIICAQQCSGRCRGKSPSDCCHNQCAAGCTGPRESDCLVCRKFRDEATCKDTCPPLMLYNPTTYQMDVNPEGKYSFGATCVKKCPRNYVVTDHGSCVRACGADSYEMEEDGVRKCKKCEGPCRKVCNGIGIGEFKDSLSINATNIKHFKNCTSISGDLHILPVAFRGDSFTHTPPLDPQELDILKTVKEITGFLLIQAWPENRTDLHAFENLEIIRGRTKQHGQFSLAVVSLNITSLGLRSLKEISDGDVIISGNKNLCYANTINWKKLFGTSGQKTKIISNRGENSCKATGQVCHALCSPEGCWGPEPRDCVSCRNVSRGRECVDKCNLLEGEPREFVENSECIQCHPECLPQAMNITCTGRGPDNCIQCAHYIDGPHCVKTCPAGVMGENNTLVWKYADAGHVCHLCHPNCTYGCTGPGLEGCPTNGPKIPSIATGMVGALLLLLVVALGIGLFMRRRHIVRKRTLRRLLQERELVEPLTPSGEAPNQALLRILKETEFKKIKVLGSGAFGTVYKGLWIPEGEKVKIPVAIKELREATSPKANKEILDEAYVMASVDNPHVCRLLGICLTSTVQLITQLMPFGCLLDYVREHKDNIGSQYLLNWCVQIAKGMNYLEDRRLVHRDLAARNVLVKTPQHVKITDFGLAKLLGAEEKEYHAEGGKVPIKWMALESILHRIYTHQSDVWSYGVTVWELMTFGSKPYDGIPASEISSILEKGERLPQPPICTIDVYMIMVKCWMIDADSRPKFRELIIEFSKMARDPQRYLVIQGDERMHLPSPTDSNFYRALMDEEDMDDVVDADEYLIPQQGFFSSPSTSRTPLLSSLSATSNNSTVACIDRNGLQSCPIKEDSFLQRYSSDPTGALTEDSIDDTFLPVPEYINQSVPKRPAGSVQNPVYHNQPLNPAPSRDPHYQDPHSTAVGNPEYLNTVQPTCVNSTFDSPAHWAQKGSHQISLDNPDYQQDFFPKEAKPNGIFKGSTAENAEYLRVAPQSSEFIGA
Description: Enzyme assay, IC50 for wt EGFR (Caliper). The test is classed as biochemical. Particulars: enzyme phosphorylation assay; read-out: EGFR_WT IC50.

For test [2], the system named is p-EGFR in H1975 cells (L858R/T790M double mutant EGFR). The settings on record: read-out: H1975 IC50; cellular EGFR autophosphorylation, 2 h treatment, ELISA. (An ELISA detects its analyte on a solid surface through an enzyme-linked reagent.)
Description: Cellular EGFR Autophosphorylation Assays.
H1975 cells were cryopreserved in liquid nitrogen. […] Remove the vial from liquid nitrogen and thaw rapidly by placing at 37° C. in a water bath with gentle agitation for 1-2 minutes and then decontaminated by wiping with 70% ethanol before opening in a Class II biological safety cabinet. Transfer the vial contents drop-wise into 10 mL of cell culture medium in a sterile 15 mL conical tube. Then centrifuged the tube at 200× g for 5 minutes and aspirate the supernatant. Re-suspend the cell pellet with 1 mL of fresh cell culture medium and transfer it in to the T75 flask containing cell culture medium.
To passage H1975 cells, firstly, the adherent cells were rinsed with Trypsin/EDTA. Then add Trypsin/EDTA (3 mL for a T75 flask) into the flask and swirl to ensure the cells coated with trypsin evenly. Then incubate the flasks at 37° C. until the cells detach. Add equal volume of cell culture medium to stop the reaction. Collect the detached cells and centrifuged at 200× g for 5 minutes followed by re-suspended in fresh culture medium. Then, the cells were transferred into a new T75 flask containing cell culture medium. Cells were sub-cultured three times per week at a ratio of 1:4 in culture medium.
Harvest cells from flask into cell culture medium and the cell numbers counted using Automated Cell Counter (Thermo Fisher Scientific, Countess™). Dilute the cells into 250,000 cells/mL with culture medium and add 40 μL of cell suspension into each well of 384-well cell culture plate as designated. The final concentration was 10,000 cells/well. The plates were covered with lid and placed in 37° C. 5% CO2 incubator overnight for cell attachment.
On the second day, test compounds were dissolved in DMSO at 10 mM. […] The same volume of DMSO was adopted as high control.
Place the plate back to 37° C. 5% CO2 incubator for 2 hours. Replace the medium of each well with ice-cold HBSS. Then remove the HBSS, add 30 μL cell lysis buffer into each well and shake the plates for 30 mins on a plate shaker. Centrifuge for 5 min at 1,000 rpm to remove bubbles and transfer 25 uL of the lysate supernatant for p-EGFR assay by using a commercial ELISA kit (R&D, DYC1095B-5).
For estimation of IC50, the absorption readout are transformed to % relative activity by applying the following equation
[formula] The IC50 was then calculated by fitting in XLFit (IDBS, Guildford, Surrey) to a four parameters logistic curve.
In test [3] the test system is p-EGFR in PC9 cells (Exon 19 deletion EGFR). Description: Exon19 deletion EGFR (activating single mutant) PC-9 cellular autophosphorylation assay. It is filed as cell-based, human. The settings on record: 2 h treatment, ELISA.

Several values for one entry are separate records, joined by “and”; a condition that tells them apart may be missing. Identical values can stand only once.

A word on the IC50: it is the point on the concentration scale where inhibition reaches its midpoint. On to `C=CC(=O)Nc1cc(Nc2nccc(-c3c[nH]c4ccccc34)n2)c(OC)cc1N(C)CCN(C)C` [AZD-5104], for which the IC50 in test [1] was 3.4 nM; on INSR it was 49.5 nM and 72.2 nM; at Wt EGFR, 1.6 nM; in test [2], 1.84 nM and 3.58 nM; in test [3], 2.91 nM and 2.4 nM.

Values taken from US10435388B2, “Selective inhibitors of clinically important mutants of the EGFR tyrosine kinase” (CS PHARMATECH LIMITED, priority 2016, dated 2019).
